Measurements: PMC3227451, “Structure-based development of novel sirtuin inhibitors” (Aging (Albany NY), 2011)

How the values were obtained:
[1] = system: HEK cells; test: Cytotoxicity testing on HEK cells
[2] = biological target: T1, Sirt3 (Homo sapiens, UniProt Q9NTG7); test: Fluor-de-Lys peptide deacetylation assay, Sirt3; type: biochemical; settings: 100 μM compound; 0.1 mM FdL-2 peptide, 0.5 mM NAD+
T1 construct: Sirt3 residues 114-399; His-tag with linker comprising a TEV protease cleavage site (N); made in house; host or cells: E. coli
T1 sequence (Q9NTG7 114-399): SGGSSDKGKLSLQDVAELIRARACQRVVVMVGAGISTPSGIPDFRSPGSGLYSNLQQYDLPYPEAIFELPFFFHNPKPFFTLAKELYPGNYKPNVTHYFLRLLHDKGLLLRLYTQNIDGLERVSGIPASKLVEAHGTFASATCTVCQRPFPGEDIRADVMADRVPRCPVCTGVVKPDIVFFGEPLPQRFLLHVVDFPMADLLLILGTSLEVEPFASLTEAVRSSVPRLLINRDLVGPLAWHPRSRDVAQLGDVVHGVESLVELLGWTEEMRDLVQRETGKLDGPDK
In short: (§1)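 E. coli-expressed human Sirtuins with 0.5 mM NAD+ and 0.1 mM Fluor-de-Lys peptide: FdL-2 (QPK(acetyl-K)) for Sirt3, FdL-1 (RHK(acetyl-K)) for Sirt5. Compounds at 100 μM final; 30 min at 37 °C, then trypsin developer for 45 min at room temperature.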

[3] = biological target: T2, Sirt5 (Homo sapiens, UniProt Q9NXA8); test: Fluor-de-Lys peptide deacetylation assay, Sirt5; type: biochemical; settings: 100 μM compound; 0.1 mM FdL-1 peptide, 0.5 mM NAD+
T2 construct: Sirt5 residues 34-302; His-tag with linker comprising a TEV protease cleavage site (N); made in house
T2 sequence (Q9NXA8 34-302): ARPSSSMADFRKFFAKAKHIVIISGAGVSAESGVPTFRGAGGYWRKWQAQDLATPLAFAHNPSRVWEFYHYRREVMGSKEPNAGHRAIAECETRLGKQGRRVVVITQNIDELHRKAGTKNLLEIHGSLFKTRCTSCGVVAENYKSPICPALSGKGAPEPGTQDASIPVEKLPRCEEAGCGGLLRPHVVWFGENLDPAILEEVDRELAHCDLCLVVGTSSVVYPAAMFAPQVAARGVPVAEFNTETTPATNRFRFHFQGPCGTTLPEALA
In short: as §1

[4] = biological target: T3, Sirt1 (Homo sapiens, UniProt Q96EB6); test: in vitro activity of Sirt1; type: biochemical; settings: concentration of 100 μM
T3 sequence (Q96EB6 1-747): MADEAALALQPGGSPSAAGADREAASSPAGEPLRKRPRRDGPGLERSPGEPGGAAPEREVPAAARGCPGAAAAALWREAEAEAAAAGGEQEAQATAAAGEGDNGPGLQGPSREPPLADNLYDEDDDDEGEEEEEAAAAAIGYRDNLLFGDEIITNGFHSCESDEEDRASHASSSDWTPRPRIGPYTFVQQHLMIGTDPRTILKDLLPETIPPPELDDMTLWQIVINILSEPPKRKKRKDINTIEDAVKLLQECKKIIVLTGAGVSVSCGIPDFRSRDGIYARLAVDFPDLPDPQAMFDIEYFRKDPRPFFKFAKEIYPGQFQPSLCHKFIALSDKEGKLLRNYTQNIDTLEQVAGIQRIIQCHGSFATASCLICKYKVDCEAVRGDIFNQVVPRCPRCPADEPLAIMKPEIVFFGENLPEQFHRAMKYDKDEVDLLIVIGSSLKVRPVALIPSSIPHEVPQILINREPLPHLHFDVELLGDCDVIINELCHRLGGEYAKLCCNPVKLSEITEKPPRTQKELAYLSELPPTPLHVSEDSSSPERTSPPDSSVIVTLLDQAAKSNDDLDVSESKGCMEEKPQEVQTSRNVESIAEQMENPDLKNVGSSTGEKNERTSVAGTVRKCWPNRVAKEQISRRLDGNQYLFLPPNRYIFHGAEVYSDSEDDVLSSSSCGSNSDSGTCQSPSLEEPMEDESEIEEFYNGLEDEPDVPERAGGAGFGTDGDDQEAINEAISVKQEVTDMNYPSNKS

[5] = biological target: T4, Sirt6 (Homo sapiens, UniProt Q8N6T7); test: Fluor-de-Lys peptide deacetylation assay, Sirt6; type: biochemical; settings: 100 μM compound; 0.1 mM FdL-1 peptide, 0.5 mM NAD+
T4 construct: Sirt6 residues 13-308; His-tag with linker comprising a TEV protease cleavage site (N, cleaved yes); made in house; host or cells: E. coli Rosetta2
T4 sequence (Q8N6T7 13-308): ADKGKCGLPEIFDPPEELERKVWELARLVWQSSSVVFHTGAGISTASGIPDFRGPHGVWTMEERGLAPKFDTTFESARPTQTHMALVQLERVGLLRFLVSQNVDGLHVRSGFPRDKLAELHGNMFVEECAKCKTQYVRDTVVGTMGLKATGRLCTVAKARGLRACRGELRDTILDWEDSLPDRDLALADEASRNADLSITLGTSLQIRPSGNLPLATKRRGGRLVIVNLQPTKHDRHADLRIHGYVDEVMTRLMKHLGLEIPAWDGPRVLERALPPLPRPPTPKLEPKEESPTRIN
In short: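 Fluor-de-Lys kit run with FdL-1 peptide RHK(acetyl-K), 0.1 mM, plus 0.5 mM NAD+. Compounds at 100 μM final, 30 min at 37 °C, then trypsin developer for 45 min at room temperature.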

[6] = biological target: T5, Sirt2 (Homo sapiens, UniProt Q8IXJ6); test: Fluor-de-Lys peptide deacetylation assay, Sirt2; type: biochemical
T5 sequence (Q8IXJ6 34-356): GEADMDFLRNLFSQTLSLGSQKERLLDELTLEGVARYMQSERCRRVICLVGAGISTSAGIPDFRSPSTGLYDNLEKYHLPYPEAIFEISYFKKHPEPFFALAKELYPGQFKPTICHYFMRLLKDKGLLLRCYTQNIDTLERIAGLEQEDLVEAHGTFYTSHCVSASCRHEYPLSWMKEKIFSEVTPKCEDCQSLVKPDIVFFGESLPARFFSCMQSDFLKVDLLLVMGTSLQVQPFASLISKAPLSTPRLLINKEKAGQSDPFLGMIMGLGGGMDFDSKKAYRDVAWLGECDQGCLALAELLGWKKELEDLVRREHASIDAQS
In short: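 Full-length human Sirt2 (E. coli-expressed, purified, His-tag removed) incubated 30 min at 37 °C with 0.1 mM FdL-2 peptide (QPK(acetyl-K)), 0.5 mM NAD+ and compound at 100 μM final in kit buffer. Values corrected with compound-only (no Sirtuin) controls; screen in duplicate, dose-response in triplicate.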

[7] = system: Sirt2; settings: cited from earlier work
[8] = system: Sirt1; settings: cited from earlier work
[9] = system: Sirt5; settings: cited from earlier work
[10] = system: yeast Sir2; parameters: method as in PMID 14534292; settings: cited from earlier work

C[C@]12CC[C@@H]3c4ccc(O)cc4CC[C@H]3[C@@H]1CCC2OC(=O)CCc1ccccc1 (some centres unmarked) [CSC8, 3-hydroxyestra-1,3,5(10)-trien-17-yl 3-phenylpropanoate]
cytotoxicity [1]: very high cytotoxicity
Effect on the activity of Sirt3 [2]: --- (no such effect)
Effect on the activity of Sirt5 [3]: --- (no such effect)
effect on the in vitro activity of Sirt1 [4]: only a weak inhibitory effect
Effect on the activity of Sirt6 [5]: --- (no such effect)
Effect on the activity of Sirt2 ([6]; 100 μM compound, 0.1 mM FdL-2 peptide, 0.5 mM NAD+): inhibition (significant inhibitory effects (>25% loss of activity))
inhibition at 100 µM ([6]; 100 μM compound, read-out: Sirt2 inhibition in the screen): ~80%
IC50 ([6]; dose-response, substrate peptide concentration 100 μM, read-out: IC50 against Sirt2): 4.8 ± 0.5 µM

NC(=O)C1CCCc2c1[nH]c1ccc(Cl)cc21 (centres unmarked) [EX-527]
potency against Sirt2 relative to Sirt1 [7]: about two orders of magnitude lower potency
effect against Sirt5 [9]: no effect

CC(NC(=O)c1ccccc1/N=C/c1c(O)ccc2ccccc12)c1ccccc1 (centres unmarked) [sirtinol]
weaker potency against Sirt1 than against Sirt2 [8]: ~ 3 fold

O=C1CCc2c(ccc3ccccc23)O1 [splitomicin]
inhibition of yeast Sir2 (potency range) [10]: micromolar inhibitors
